According to PMC10926604, “Discovery of a novel small molecule as CD47/SIRPα and PD-1/PD-L1 dual inhibitor for cancer immunotherapy” (Cell Communication and Signaling : CCS, 2024):
Entries after “also recorded” stand apart in the source; their conditions may differ.

What was measured:
[1] = biological target: T1, murine SIRPα (mSIRPα) (Mus musculus, UniProt P97797); test: MST binding assay, murine SIRPα; settings: SIRPα-IgV-His, read-out: dissociation constant (KD) for murine SIRPα
T1 construct: SIPRα-IgV-His (human: SIA-H5225, mouse: SIA-M52H4, ACRO Biosystems); His; purchased ACRO Biosystems SIA-M52H4
T1 sequence (P97797 32-137 limits assumed): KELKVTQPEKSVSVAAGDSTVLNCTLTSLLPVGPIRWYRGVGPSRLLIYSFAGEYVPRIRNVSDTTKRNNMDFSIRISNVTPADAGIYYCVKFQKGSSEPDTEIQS
Experimental: (§1) SIPRα-IgV-His (human: SIA-H5225, mouse: SIA-M52H4, ACRO Biosystems) and PD-L1-IgV-His (human: 10,084-H08H, mouse: 50,010-M08H, Sino Biological) proteins were labeled with Red-NHS647 dye (NT-MO-L001, NanoTemper) for subsequent experiments. SMC18 (C385-0664, ChemDiv) was serially diluted using PBST (from 0.0191 μM to 200 μM) and mixed with the labeled proteins. The samples were then aspirated using standard capillaries and assayed by MST instrument (Monolith NT.115, NanoTemper), and the results were analyzed using the analytical software Monolith NT.115 system to calculate the dissociation constant (KD) values.

[2] = biological target: T2, human PD-L1 (hPD-L1) (Homo sapiens, UniProt Q9NZQ7); test: MST binding assay, human PD-L1; settings: PD-L1-IgV-His, read-out: dissociation constant (KD) for human PD-L1
T2 construct: PD-L1-IgV-His (human: 10,084-H08H, mouse: 50,010-M08H, Sino Biological); His; purchased Sino Biological 10,084-H08H
T2 sequence (Q9NZQ7 19-127 limits assumed): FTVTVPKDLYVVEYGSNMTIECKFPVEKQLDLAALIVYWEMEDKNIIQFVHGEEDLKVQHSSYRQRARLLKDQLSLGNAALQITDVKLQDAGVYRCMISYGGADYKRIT
Experimental: as §1

[3] = biological target: T3, murine PD-L1 (mPD-L1) (Mus musculus, UniProt Q9EP73); test: MST binding assay, murine PD-L1; settings: PD-L1-IgV-His, read-out: dissociation constant (KD) for murine PD-L1
T3 construct: PD-L1-IgV-His (human: 10,084-H08H, mouse: 50,010-M08H, Sino Biological); His; purchased Sino Biological 50,010-M08H
T3 sequence (Q9EP73 19-127 limits assumed): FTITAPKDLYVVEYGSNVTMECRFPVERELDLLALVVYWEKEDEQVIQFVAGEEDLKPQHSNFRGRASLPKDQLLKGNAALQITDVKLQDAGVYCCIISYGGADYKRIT
Experimental: as §1

[4] = biological target: hTIGIT/hPVR (Homo sapiens, UniProt P15151+Q495A1); test: Blockade of other immune checkpoint pathways, TIGIT/PVR; assay type: cell-based; settings: Fig. S2
Sequence of hTIGIT/hPVR (Q495A1 22-244): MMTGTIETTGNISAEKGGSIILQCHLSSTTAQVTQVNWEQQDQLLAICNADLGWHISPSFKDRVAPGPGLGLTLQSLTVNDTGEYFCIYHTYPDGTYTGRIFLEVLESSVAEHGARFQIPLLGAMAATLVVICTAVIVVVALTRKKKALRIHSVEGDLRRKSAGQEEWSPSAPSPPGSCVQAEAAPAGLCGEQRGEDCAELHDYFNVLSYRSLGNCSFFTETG
Sequence of hTIGIT/hPVR (P15151 21-417): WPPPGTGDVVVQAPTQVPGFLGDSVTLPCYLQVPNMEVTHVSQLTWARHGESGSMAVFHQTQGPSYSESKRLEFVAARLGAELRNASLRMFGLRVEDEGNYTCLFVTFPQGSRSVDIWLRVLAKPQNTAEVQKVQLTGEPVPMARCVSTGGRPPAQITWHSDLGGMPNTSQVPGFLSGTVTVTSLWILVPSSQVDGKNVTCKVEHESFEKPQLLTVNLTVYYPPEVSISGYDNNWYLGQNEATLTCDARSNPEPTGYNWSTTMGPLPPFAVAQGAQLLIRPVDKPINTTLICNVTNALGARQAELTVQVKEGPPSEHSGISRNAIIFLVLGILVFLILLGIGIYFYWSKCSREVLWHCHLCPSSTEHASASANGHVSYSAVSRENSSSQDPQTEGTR

[5] = biological target: hTIM-3/hGal-9 (Homo sapiens, UniProt O00182+Q8TDQ0); test: Blockade of other immune checkpoint pathways, TIM-3/Gal-9; assay type: cell-based; settings: Fig. S2
Sequence of hTIM-3/hGal-9 (Q8TDQ0 22-301): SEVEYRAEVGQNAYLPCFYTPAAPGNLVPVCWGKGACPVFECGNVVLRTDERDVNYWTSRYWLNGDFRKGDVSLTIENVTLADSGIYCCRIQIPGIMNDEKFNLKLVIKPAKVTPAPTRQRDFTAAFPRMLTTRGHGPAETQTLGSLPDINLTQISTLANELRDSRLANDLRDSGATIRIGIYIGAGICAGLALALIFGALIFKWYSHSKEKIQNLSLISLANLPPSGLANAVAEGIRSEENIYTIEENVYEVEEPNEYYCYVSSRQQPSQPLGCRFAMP
Sequence of hTIM-3/hGal-9 (O00182 whole entry): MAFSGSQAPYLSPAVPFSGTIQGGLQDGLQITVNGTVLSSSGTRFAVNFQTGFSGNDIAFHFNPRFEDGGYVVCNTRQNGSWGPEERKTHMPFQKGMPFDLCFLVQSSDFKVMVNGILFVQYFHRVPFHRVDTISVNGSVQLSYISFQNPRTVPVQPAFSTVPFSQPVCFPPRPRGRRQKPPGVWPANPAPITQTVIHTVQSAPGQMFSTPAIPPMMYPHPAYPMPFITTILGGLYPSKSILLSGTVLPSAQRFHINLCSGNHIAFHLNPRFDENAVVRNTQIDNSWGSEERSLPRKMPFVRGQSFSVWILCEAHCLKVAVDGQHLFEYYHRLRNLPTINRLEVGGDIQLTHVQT

[6] = tested on: GFP+ B16-OVA cells phagocytosed by BMDMs; test: Phagocytosis assay, BMDMs with GFP+ B16-OVA cells; assay type: cell-based, mouse; settings: 50 μM, flow cytometry
Experimental: Bone marrow-derived macrophage cells (BMDMs) from C57BL/6N mice were isolated and induced with 20 ng/mL of mouse granulocyte–macrophage colony-stimulating factor (GM-CSF, 315–03, Peprotech) for 7 days, with regular medium changes and cytokine replenishment during cell induction. The cells were then harvested for subsequent experiments. Subsequently, the cells were treated with SMC18 at a concentration of 50 μΜ. The anti-CD47 antibody (clone miap301, 16–0471-81, Invitrogen) was employed as a positive control with 20 µg/mL. Phagocytosis was measured by the co-culture of macrophages with green fluorescent protein (GFP^+) tumor cells (GFP^+ MC38 and GFP^+ B16-OVA cells) at a ratio of 1:4 in serum-free medium at 37 °C for 4 h. The cells were harvested and identified by flow cytometry using anti-F4/80 antibody (BM8, 17–4801-82, eBioscience). The phagocytosis rate was calculated as the percentage F4/80^+GFP^+ cells relative to the total number of total F4/80^+ cells. For confocal microscopy detection, BMDMs were labelled with DiR dye (R-22070, Beyotime) at a final concentration of 200 μM, followed by a 30-min staining period. After washing with PBS three times, the cells were cultured with DMEM medium devoid of serum for 2 h. Subsequently, MC38-EGFP cells were seeded onto BMDMs at a density of 4 × 10^6 cells per well. […]

[7] = tested on: Jurkat cells co-cultured with CHO-K1-hPD-L1 cells; test: Co-culture assay, IL-2 secretion of Jurkat cells with CHO-K1-hPD-L1 cells; assay type: cell-based, human; settings: 50 μM, co-culture with CHO-K1-hPD-L1 cells 48 h
Experimental: Jurkat cells were stimulated with 25 ng/mL of […] (PMA, 16,561–29-8, Sigma) and 1 μg/mL of phytohemag-glutinin (PHA, L8902, Sigma) or 1 μg/mL anti-human CD3 (OKT3, BioGems and 0.5 μg/mL anti-human CD28 (CD28.2, BioGems) for 24 h. Subsequently, they were co-cultured with CHO-K1-hPD-L1 cells at a ratio of 4:1 for 48 h. SMC18 (50 μΜ) and OPBP-1 peptide (100 μM) were added as experimental group and positive control group, respectively. Four hours before the end of the co-culture, protein transport inhibitor (555,029, BD Biosciences) was added. Jurkat cells were collected and stained with anti-human CD45 antibody (HI30, eBioscience) for 30 min. The cells were then fixed and stained with anti-human IL-2-APC (MQ1-17H12, eBioscience) for another 30 min. The fluorescence intensity was analyzed by flow cytometry (BD, FACSCelesta).

For `Cc1cc(C)cc(NS(=O)(=O)c2ccc3[nH]cc(C(=O)NCCc4ccccc4)c(=O)c3c2)c1` [SMC18], the Kd [1] was 2490 ± 1900 nM, the Kd [2] was 29 ± 30 nM and the Kd [3] was 25 ± 30 nM. The “inhibitory effect on hTIGIT/hPVR pathway” value [4] was “no blocking effect; also recorded: did not impede”, the “inhibitory effect on hTIM-3/hGal-9 pathway” value [5] was “no blocking effect; also recorded: did not impede” and the “phagocytosis of B16-OVA cells by BMDMs” value [6] was “enhances; also recorded: significantly increased”. The “ability of Jurkat cells to secrete IL-2” value [7] was “effectively restored”.
